Experimental findings from patent US20090298825A1, “Bicycloheteroaryl Compounds as P2x7 Modulators and Uses Thereof” (priority 2006, published 2009) are described below.

The target in the assay is T1, P2X7 receptor (Homo sapiens, UniProt Q99572).
T1 construct: endogenous in cells; host or cells: THP-1 cells differentiated with LPS and IFN-γ
T1 sequence (Q99572 1-595): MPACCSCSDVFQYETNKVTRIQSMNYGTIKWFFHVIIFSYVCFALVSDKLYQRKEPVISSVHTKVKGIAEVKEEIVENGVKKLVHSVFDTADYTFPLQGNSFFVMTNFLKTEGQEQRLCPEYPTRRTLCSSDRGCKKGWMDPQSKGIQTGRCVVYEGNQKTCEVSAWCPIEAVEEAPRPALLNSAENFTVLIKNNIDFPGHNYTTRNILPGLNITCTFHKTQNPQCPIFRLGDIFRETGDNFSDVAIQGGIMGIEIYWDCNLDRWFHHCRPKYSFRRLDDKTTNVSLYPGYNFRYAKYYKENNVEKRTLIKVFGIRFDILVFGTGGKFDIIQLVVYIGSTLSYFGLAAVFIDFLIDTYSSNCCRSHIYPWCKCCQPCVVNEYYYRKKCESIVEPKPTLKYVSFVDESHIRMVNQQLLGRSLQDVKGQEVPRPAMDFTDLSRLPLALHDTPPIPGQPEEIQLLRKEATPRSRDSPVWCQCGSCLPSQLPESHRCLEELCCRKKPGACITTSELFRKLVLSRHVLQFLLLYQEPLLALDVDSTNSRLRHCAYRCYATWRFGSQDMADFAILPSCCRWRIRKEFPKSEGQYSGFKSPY
The experiment in a line: IL-1β release assay in differentiated THP-1 cells stimulated with BzATP (Example 9). The class given is cell-based. The note with it: for inhibition at 0.3 µM: 0.3 μM concentration; for inhibition at 0.3 µM / inhibition at 0.1 µM: read-out: IL-1β % Inhib. @ 0.3 or 0.1 μM; for IC50: four parameter logistic fit, read-out: IL-1β IC50; for inhibition at 0.1 µM: 0.1 μM concentration. On the procedure: The cells are then pretreated for 30 minutes with the compound of interest at the appropriate concentration in RPMI media containing 100 IU/mL penicillin, 100 ug/mL streptomycin. […] 30 uL of cell supernatant is then collected and IL-1β levels determined via ELISA (R&D systems Cat. # HSLB50) according to manufacturer's recommendations using the Tecan Safire plate reader. Background adjusted IL-1β levels of drug treated and non-treated cells are used to calculate the percent inhibition.
The compounds set forth in Table 1 were tested for activity in a cellular model as described herein. […] Measurements were made and IC50 values, presented in Table 2, below, were determined by fitting the data to a four parameter logistic equation using GraphPad Prism software (GraphPad Software, Inc). The equation may be expressed by the following formula:
Y=Bottom+(Top-Bottom)/(1+10̂((Log EC50−X)*HillSlope))
Where X is the logarithm of concentration, Y is the response and Y starts at Bottom and goes to Top with a sigmoid shape.

SMILES strings stand for the structures. Where only a bound is given, the exact number is not on record here.

As a reminder, the IC50 is the concentration at which inhibition is half-maximal. On to `O=C(Cc1ccc(F)c(Cl)c1)Nc1cccc2c(=O)n(C3CCC3)ccc12` [ID 893], for which the inhibition at 0.3 µM is over 76% and the half-inhibitory concentration (IC50) turned out to be 48.3 nM.

Turning to `CCOC(=O)N1CCC(n2ccc3c(NC(=O)Cc4ccccc4OC)cccc3c2=O)CC1` [ID 779], the inhibition at 0.1 µM was in the range of 0 to 25%. As for `CC12CC3CC(C)(C1)CC(CC(=O)Nc1cccc4c(=O)n(-c5cccnc5)ccc14)(C3)C2` [ID 701], the inhibition at 0.3 µM is over 76% and the IC50 was determined as 3.22 nM. On to `CCOC(=O)N1CCC(n2ccc3c(NC(=O)[C@H]4CC[C@H](C)CC4)cccc3c2=O)CC1` [ID 750], for which the inhibition at 0.1 µM lay in the range of 0 to 25%. Regarding `Cc1cc(-n2ccc3c(NC(=O)C4C[C@@H]5CC[C@H]4C5)cccc3c2=O)no1` (stereo partly drawn) [ID 738], the inhibition at 0.1 µM lay within 0 to 25%. For `Cc1ncccc1-n1ccc2c(NC(=O)[C@@H](C)c3ccc(Cl)cc3)cccc2c1=O` [ID 864], the inhibition at 0.3 µM is over 76% and the concentration for half-maximal inhibition (IC50) is 111 nM. For `O=C(CC12CC3CC(CC(C3)C1)C2)Nc1cccc2c(=O)n(-c3ccc(N4CCOCC4)nc3)ccc12` [ID 709], in that order: over 76% and 25.6 nM. `CCOC(=O)N1CCC(n2ccc3c(NC(=O)c4ccc(OCC)cc4O)cccc3c2=O)CC1` [ID 748]: the inhibition at 0.1 µM lay within 0 to 25%. On to `C[C@H](C(=O)Nc1cccc2c(=O)n([C@H]3CCNC3)ccc12)c1ccc(Cl)c(Cl)c1` [ID 832], for which the inhibition at 0.3 µM was over 76% and the IC50 stood at 73.6 nM. Consider `CCOC(=O)N1CCC(n2ccc3c(NC(=O)Cc4ccc(OC)c(OC)c4)cccc3c2=O)CC1` [ID 783], for which the inhibition at 0.1 µM fell in the range of 0 to 25%.

`Cc1ncccc1-n1ccc2c(NC(=O)[C@H](C)c3ccc(Cl)cc3)cccc2c1=O` [ID 863]: the inhibition at 0.3 µM was over 76% and the concentration for half-maximal inhibition (IC50) was 43 nM. Turning to `Cc1cc(-n2ccc3c(NC(=O)c4ccc(F)c(C)c4)cccc3c2=O)no1` [ID 740], the inhibition at 0.1 µM was in the range of 0 to 25%.

Take `Cc1ccncc1-n1ccc2c(NC(=O)CC34CC5CC(CC(C5)C3)C4)cccc2c1=O` [ID 702]: the inhibition at 0.3 µM is over 76% and the IC50 was found to be 0.177 nM. `O=C(Cc1cccc(C(F)(F)F)c1F)Nc1cccc2c(=O)n(C3CCC3)ccc12` [ID 886]: the inhibition at 0.3 µM was over 76% and the IC50 came out at 20.3 nM. As to `CCOC(=O)N1CCC(n2ccc3c(NC(=O)c4ccc(OCC)cc4)cccc3c2=O)CC1` [ID 771], the inhibition at 0.1 µM fell in the range of 0 to 25%. As to `Cc1ncccc1-n1ccc2c(NC(=O)Cc3ccc(Cl)cc3F)cccc2c1=O` [ID 859], the inhibition at 0.3 µM is over 76% and the half-maximal inhibitory concentration (IC50) worked out at 50.1 nM. As for `CCOC(=O)N1CCC(n2ccc3c(NC(=O)CCc4ccc5c(c4)OCO5)cccc3c2=O)CC1` [ID 759], the inhibition at 0.1 µM was in the range of 0 to 25%. Consider `O=C(CC12CC3CC(CC(C3)C1)C2)Nc1cccc2c(=O)n(C3CC3)ccc12` [ID 889], for which the inhibition at 0.3 µM was over 76% and the IC50 turned out to be 0.777 nM. As to `CCOC(=O)N1CCC(n2ccc3c(NC(=O)c4ccc(Cl)c(C)c4)cccc3c2=O)CC1` [ID 760], the inhibition at 0.1 µM was in the range of 0 to 25%.

With `CCOC(=O)N1CCC(n2ccc3c(NC(=O)c4cc(OC)cc(OC)c4)cccc3c2=O)CC1` [ID 769], the inhibition at 0.1 µM lay in the range of 26 to 50%.

For the molecule `Cc1cccc(CC(=O)Nc2cccc3c(=O)n(-c4cc(C)on4)ccc23)c1` [ID 731], the inhibition at 0.1 µM lay within 0 to 25%.

Consider `O=C(Cc1ccc(Cl)c(Cl)c1)Nc1cccc2c(=O)n(C3CCC3)ccc12` [ID 898], for which the inhibition at 0.3 µM was over 76% and the IC50 was found to be 23.6 nM. Regarding `CCOC(=O)N1CCC(n2ccc3c(NC(=O)c4ccc(OC)c(C)c4)cccc3c2=O)CC1` [ID 809], the inhibition at 0.1 µM lay in the range of 0 to 25%. As for `O=C(Cc1ccc(C(F)(F)F)cc1)Nc1cccc2c(=O)n(C3CCC3)ccc12` [ID 891], the inhibition at 0.3 µM lay within 51 to 75% and the IC50 was found to be 283 nM.

Regarding `COc1ccc(OC)c(CC(=O)Nc2cccc3c(=O)n(-c4cc(C)on4)ccc23)c1` [ID 728], the inhibition at 0.1 µM is 0 to 25%. As to `O=C(CC1(O)CCCCCC1)Nc1cccc2c(=O)n([C@@H]3CCNC3)ccc12` [ID 837], the inhibition at 0.3 µM was 51 to 75% and the concentration for half-maximal inhibition (IC50) came out at 275 nM. As to `O=C(Cc1cccc(C(F)(F)F)c1F)Nc1cccc2c(=O)n(C3CN4CCC3CC4)ccc12` (stereo not drawn) [ID 845], the inhibition at 0.3 µM is over 76% and the IC50 turned out to be 134 nM. On to `Cc1ccncc1-n1ccc2c(NC(=O)Cc3ccc(C(F)(F)F)cc3)cccc2c1=O` [ID 853], for which the inhibition at 0.3 µM fell in the range of 51 to 75% and the half-inhibitory concentration (IC50) stood at 245 nM. `Cc1ccncc1-n1ccc2c(NC(=O)Cc3cccc(C(F)(F)F)c3F)cccc2c1=O` [ID 852]: the inhibition at 0.3 µM is over 76% and the 50% inhibitory concentration (IC50) came to 43.1 nM. As to `CCOC(=O)N1CCC(n2ccc3c(NC(=O)[C@@]45C[C@@H]6C[C@@H](C[C@@H]4C6)C5)cccc3c2=O)CC1` [ID 797], the inhibition at 0.1 µM was 0 to 25%.

As to `Cc1ccc2c(=O)n([C@H]3CCNC3)ccc2c1NC(=O)Cc1ccc(F)c(C(F)(F)F)c1` [ID 901], the inhibition at 0.3 µM was over 76% and the IC50 is 11 nM. As to `Cc1cc(-n2ccc3c(NC(=O)Cc4ccccc4C)cccc3c2=O)no1` [ID 729], the inhibition at 0.1 µM was in the range of 0 to 25%. Still for that read-out and setting: in the case of `CCOC(=O)N1CCC(n2ccc3c(NC(=O)c4ccc(Cl)cc4C)cccc3c2=O)CC1` [ID 794] it was 0 to 25%. Regarding `Cc1cc(-n2ccc3c(NC(=O)c4cccc(C)c4C)cccc3c2=O)no1` [ID 721], the inhibition at 0.1 µM fell in the range of 0 to 25%. Take `CCOC(=O)N1CCC(n2ccc3c(NC(=O)c4cc5ccccc5o4)cccc3c2=O)CC1` [ID 789]: the inhibition at 0.1 µM lay in the range of 0 to 25%.

For `O=C(Cc1ccc(F)c(Cl)c1)Nc1cccc2c(=O)n(C3CC3)ccc12` [ID 881], the inhibition at 0.3 µM is over 76% and the half-inhibitory concentration (IC50) was 4.32 nM. As to `Cc1cccc(C(=O)Nc2cccc3c(=O)n(-c4cc(C)on4)ccc23)c1` [ID 723], the inhibition at 0.1 µM was 0 to 25%. Turning to `Cc1ncccc1-n1ccc2c(NC(=O)Cc3ccc(C(F)(F)F)cc3F)cccc2c1=O` [ID 865], the inhibition at 0.3 µM is over 76% and the IC50 came out at 76.7 nM. Turning to `Cc1ncccc1-n1ccc2c(NC(=O)C(C)c3cccc(C(F)(F)F)c3F)cccc2c1=O` (stereo not drawn) [ID 862], the inhibition at 0.3 µM was over 76% and the IC50 was determined as 17.2 nM.

On to `CCOC(=O)N1CCC(n2ccc3c(NC(=O)c4ccc(C)cc4C)cccc3c2=O)CC1` [ID 766], for which the inhibition at 0.1 µM lay in the range of 0 to 25%. Regarding `CCOC(=O)N1CCC(n2ccc3c(NC(=O)Cc4cccc(C)c4)cccc3c2=O)CC1` [ID 784], the inhibition at 0.1 µM fell in the range of 0 to 25%. Turning to `CCOC(=O)N1CCC(n2ccc3c(NC(=O)c4cccc(C)c4C)cccc3c2=O)CC1` [ID 765], the inhibition at 0.1 µM fell in the range of 0 to 25%.

In the case of `Cc1cc(-n2ccc3c(NC(=O)c4cc5ccccc5o4)cccc3c2=O)no1` [ID 734], the inhibition at 0.1 µM was 0 to 25%.

As to `Cc1cccc(CCC(=O)Nc2cccc3c(=O)n(-c4cc(C)on4)ccc23)c1` [ID 742], the inhibition at 0.1 µM lay in the range of 0 to 25%. Regarding `O=C(CC1CCCCCC1)Nc1cccc2c(=O)n(C3CCNCC3)ccc12` [ID 819], the inhibition at 0.3 µM was in the range of 51 to 75% and the half-maximal inhibitory concentration (IC50) worked out at 206 nM. Turning to `O=C(Cc1ccc(Cl)c(F)c1)Nc1cccc2c(=O)n(-c3cccnc3F)ccc12` [ID 873], the inhibition at 0.3 µM was over 76% and the IC50 worked out at 31.4 nM.

Take `O=C(CC1CCCCCC1)Nc1cccc2c(=O)n(C3CCNC3)ccc12` (stereo not drawn) [ID 820]: the inhibition at 0.3 µM is over 76% and the IC50 is 25.7 nM. For `O=C(Cc1ccc(Cl)c(Cl)c1)Nc1cccc2c(=O)n(C3CCNC3)ccc12` (stereo not drawn) [ID 815], the inhibition at 0.3 µM is over 76% and the 50% inhibitory concentration (IC50) was found to be 125 nM. `CCOC(=O)N1CCC(n2ccc3c(NC(=O)c4cccc(Cl)c4C)cccc3c2=O)CC1` [ID 801]: the inhibition at 0.1 µM fell in the range of 0 to 25%.

`CCOC(=O)N1CCC(n2ccc3c(NC(=O)c4ccc(C)c(Cl)c4)cccc3c2=O)CC1` [ID 793]: the inhibition at 0.1 µM lay in the range of 0 to 25%. Still for that read-out and setting: to `Cc1cc(-n2ccc3c(NC(=O)c4cccc(C)c4Cl)cccc3c2=O)no1` [ID 743] belongs 0 to 25%. `O=C(Cc1ccc(Cl)c(C(F)(F)F)c1)Nc1cccc2c(=O)n([C@H]3CCNC3)ccc12` [ID 836]: the IC50 was determined as 16 nM. As to `COc1ccccc1CC(=O)Nc1cccc2c(=O)n(-c3cc(C)on3)ccc12` [ID 727], the inhibition at 0.1 µM is 0 to 25%. Take `CCOC(=O)N1CCC(n2ccc3c(NC(=O)CC4C[C@@H]5CC[C@H]4C5)cccc3c2=O)CC1` (stereo partly drawn) [ID 795]: the inhibition at 0.1 µM is 0 to 25%.
